According to patent US10206907B2, “Compounds useful for the treatment of degenerative and inflammatory diseases” (GALAPAGOS NV, priority 2008, dated 2019):

Assays:
MMP13 in SW1353 cells = assay: OSM/IL-1β signaling assay (MMP13 levels in SW1353 cells); type: cell-based; conditions: Homo sapiens; SW1353 cells, OSM and IL-1β triggered, MMP13 levels 48 hours after triggering; read-out: MMP13 EC50;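 further: secreted MMP13 captured by antibody, activated with APMA and its activity read by fluorescence, inhibition scaled between vehicle-treated triggered wells (0%) and untriggered wells (100%)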
[1] = target: Recombinant human JAK1 catalytic domain (Homo sapiens (Human), UniProt P23458); assay: JAK1 inhibition assay; type: biochemical; conditions: semi-quantitative score
Chain of Recombinant human JAK1 catalytic domain (P23458 850-1154): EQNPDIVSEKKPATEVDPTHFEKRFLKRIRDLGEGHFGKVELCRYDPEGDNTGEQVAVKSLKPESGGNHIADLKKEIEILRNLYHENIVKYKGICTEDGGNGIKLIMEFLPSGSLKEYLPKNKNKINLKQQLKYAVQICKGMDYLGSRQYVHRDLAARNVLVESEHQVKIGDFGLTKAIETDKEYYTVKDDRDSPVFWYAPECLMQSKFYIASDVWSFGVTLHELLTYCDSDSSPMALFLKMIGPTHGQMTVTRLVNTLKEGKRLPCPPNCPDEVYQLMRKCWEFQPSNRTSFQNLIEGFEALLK
How it was run: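 Radiometric assay read by scintillation counting after phosphoric-acid washes. Percent inhibition calculated from cpm relative to vehicle and 10 μM staurosporine control. IC50 derived from compound dose-dilution series.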

[2] = target: Recombinant human JAK2 catalytic domain (Homo sapiens (Human), UniProt O60674); assay: JAK2 inhibition assay; type: biochemical; conditions: semi-quantitative score
Chain of Recombinant human JAK2 catalytic domain (O60674 808-1132): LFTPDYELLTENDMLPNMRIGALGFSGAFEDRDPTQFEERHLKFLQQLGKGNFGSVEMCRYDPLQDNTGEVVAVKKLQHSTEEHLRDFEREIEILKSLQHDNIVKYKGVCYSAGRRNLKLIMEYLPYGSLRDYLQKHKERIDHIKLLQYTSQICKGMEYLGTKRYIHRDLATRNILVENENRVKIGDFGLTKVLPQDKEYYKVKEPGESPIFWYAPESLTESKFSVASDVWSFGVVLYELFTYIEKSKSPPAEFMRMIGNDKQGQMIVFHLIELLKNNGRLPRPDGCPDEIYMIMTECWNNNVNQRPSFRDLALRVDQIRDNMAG
How it was run: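 Radiometric kinase reactions ran for 90 min at 30 °C and were stopped with phosphoric acid, then washed and counted by scintillation. Percent inhibition was set relative to vehicle and to 10 μM staurosporine background. IC50 was derived from dose-dilution series.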

[3] = test system: JAK-STAT signalling in HeLa cells; assay: JAK-STAT signalling assay (OSM-triggered pSTAT1(2)-luciferase reporter in HeLa cells); type: cell-based; conditions: Homo sapiens; HeLa cells, OSM-triggered pSTAT1(2)-luciferase reporter; read-out: STAT signalling EC50
Experimental: HeLa cells were maintained in Dulbecco's Modified Eagle's Medium (DMEM) containing 10% heat inactivated fetal calf serum, 100 U/mL penicillin and 100 μg/mL streptomycin. HeLa cells were used at 70% confluence for transfection. 20,000 cells in 87 μL cell culture medium were transiently transfected with 40 ng pSTAT1(2)-luciferase reporter (Panomics), 8 ng of LacZ reporter as internal control reporter and 52 ng of pBSK using 0.32 μL Jet-PEI (Polyplus) as transfection reagent per well in 96-well plate format. After overnight incubation at 37° C., 10% CO2, transfection medium was removed.
40 μL of cell lysate was used to read β-galactosidase activity by adding 180 μL βGal solution (30 μl ONPG 4 mg/mL+150 μL β-Galactosidase buffer (0.06 M Na2HPO4, 0.04 M NaH2PO4, 1 mM MgCl2)) for 20 min.
Luciferase activity was measured using 40 μL cell lysate plus 40 μl of Steadylite® as described by the manufacturer (Perkin Elmer), on the Envision (Perkin Elmer).
The positive and negative controls were used to calculate z’ and ‘percent inhibition’ (PIN) values.
PIN values were plotted for compounds tested in dose-response and EC50 values were derived.

| SMILES | EC50 (MMP13 in SW1353 cells) [µM] | IC50 [1] [µM] | IC50 [2] [µM] | EC50 [3] [µM] |
| --- | --- | --- | --- | --- |
| O=C(Nc1nc2cccc(-c3ccc(C(=O)N4CCOCC4)cc3)n2n1)C1CC1 [Compound 24, N-(5-(4-(morpholine-4-carbonyl)phenyl)-[1,2,4]triazolo[1,5-a]pyridin-2-yl)cyclopropanecarboxamide] | > 1 | 0.101 to 0.5 | 0.101 to 0.5 | – |
| CN1CCC(NC(=O)c2ccc(-c3cccc4nc(NC(=O)C5CC5)nn34)cc2)CC1 [Compound 32, 4-(2-(cyclopropanecarboxamido)-[1,2,4]triazolo[1,5-a]pyridin-5-yl)-N-(1-methylpiperidin-4-yl)benzamide] | > 1 | 0.501 to 1 | > 1 | – |
| O=C(Nc1nc2cccc(-c3ccc(NS(=O)(=O)c4ccccc4)cc3)n2n1)C1CC1 [Compound 79, N-(5-(4-(phenylsulfonamido)phenyl)-[1,2,4]triazolo[1,5-a]pyridin-2-yl)cyclopropanecarboxamide] | 0.501 to 1 | < 0.1 | – | > 1 |
| CC1CCN(C(=O)c2ccc(-c3cccc4nc(NC(=O)C5CC5)nn34)cc2)CC1 [Compound 146, N-(5-(4-(4-methylpiperidine-1-carbonyl)phenyl)-[1,2,4]triazolo[1,5-a]pyridin-2-yl)cyclopropanecarboxamide] | > 1 | < 0.1 | – | > 1 |
| O=C(Nc1nc2cccc(-c3ccc(OCc4ccc(-c5nnn[nH]5)nc4)cc3)n2n1)C1CC1 [Compound 183, Cyclopropanecarboxylic Acid (5-{4-[6-(2H-tetrazol-5-yl)-pyridin-3-ylmethoxy]-phenyl}-[1,2,4]triazolo[1,5-a]pyridin-2-yl)-amide] | > 1 | < 0.1 | – | > 1 |
| CN1CCN(c2ccc(NCc3ccc(-c4cccc5nc(NC(=O)C6CC6)nn45)cc3)cn2)CC1 [Compound 235, Cyclopropanecarboxylic acid [5-(4-{[6-(4-methyl-piperazin-1-yl)-pyridin-3-ylamino]-methyl}-phenyl)-[1,2,4]triazolo[1,5-a]pyridin-2-yl]-amide] | – | < 0.1 | 0.101 to 0.5 | > 1 |
| N#Cc1ccc(-c2ccc(-c3cccc4nc(NC(=O)C5CC5)nn34)cc2)cn1 [Compound 239, Cyclopropanecarboxylic Acid {5-[4-(6-cyano-pyridin-3-yl)-phenyl]-[1,2,4]triazolo[1,5-a]pyridin-2-yl}-amide] | – | < 0.1 | 0.101 to 0.5 | > 1 |
| CN(C)C1CCCN(C(=O)c2ccc(-c3cccc4nc(NC(=O)C5CC5)nn34)cc2)C1 (stereo not drawn) [Compound 269, Cyclopropanecarboxylic acid {5-[4-(3-dimethylamino-piperidine-1-carbonyl)-phenyl]-[1,2,4]triazolo[1,5-a]pyridin-2-yl}-amide] | – | 0.101 to 0.5 | > 1 | > 1 |
| O=C(NCc1ccc(-c2cccc3nc(NC(=O)C4CC4)nn23)cc1)C1CC1 [Compound 272, Cyclopropanecarboxylic acid 4-[2-(cyclopropanecarbonyl-amino)-[1,2,4]triazolo[1,5-a]pyridin-5-yl]-benzylamide] | – | < 0.1 | 0.101 to 0.5 | > 1 |
| O=C1CN(C(=O)c2ccc(-c3cccc4nc(NC(=O)C5CC5)nn34)cc2)CCN1 [Compound 277, Cyclopropanecarboxylic acid [5-[4-(3-oxo-piperazine-1-carbonyl)-phenyl]-[1,2,4]triazolo[1,5-a]pyridin-2-yl}-amide] | – | < 0.1 | 0.101 to 0.5 | > 1 |
| N#Cc1ccc(OC2CN(Cc3ccc(-c4cccc5nc(NC(=O)C6CC6)nn45)cc3)C2)cc1 [Compound 278, Cyclopropanecarboxylic acid (5-{4-[3-(4-cyano-phenoxy)-azetidin-1-ylmethyl]-phenyl}-[1,2,4]triazolo[1,5-a]pyridin-2-yl)-amide] | – | < 0.1 | 0.101 to 0.5 | > 1 |
| COC1CCN(Cc2ccc(-c3cccc4nc(NC(=O)C5CC5)nn34)cc2)CC1 [Compound 281, Cyclopropanecarboxylic acid {5-[4-(4-methoxy-piperidin-1-ylmethyl)-phenyl]-[1,2,4]triazolo[1,5-a]pyridin-2-yl}-amide] | – | < 0.1 | > 1 | > 1 |
| N#Cc1ccc(COC2CN(c3ccc(-c4cccc5nc(NC(=O)C6CC6)nn45)cc3)C2)cc1 [Compound 284, Cyclopropanecarboxylic acid (5-{4-[3-(4-cyano-benzyloxy)-azetidin-1-yl]-phenyl}-[1,2,4]triazolo[1,5-a]pyridin-2-yl)-amide] | – | < 0.1 | 0.501 to 1 | > 1 |
| N#CC1CN(c2ccc(-c3cccc4nc(NC(=O)C5CC5)nn34)cc2)C1 [Compound 288, Cyclopropanecarboxylic acid {5-[4-(3-cyano-azetidin-1-yl)-phenyl]-[1,2,4]triazolo[1,5-a]pyridin-2-yl}-amide] | – | < 0.1 | 0.101 to 0.5 | > 1 |
| COC1CCN(C(=O)c2ccc(-c3cccc4nc(NC(=O)C5CC5)nn34)cc2)CC1 [Compound 293, Cyclopropanecarboxylic acid {5-[4-(4-methoxy-piperidine-1-carbonyl)-phenyl]-[1,2,4]triazolo[1,5-a]pyridin-2-yl}-amide] | – | < 0.1 | > 1 | > 1 |
| N#CC1CN(Cc2ccc(-c3cccc4nc(NC(=O)C5CC5)nn34)cc2)C1 [Compound 303, Cyclopropanecarboxylic acid {5-[4-(3-cyano-azetidin-1-ylmethyl)-phenyl]-[1,2,4]triazolo[1,5-a]pyridin-2-yl}-amide] | – | < 0.1 | 0.101 to 0.5 | 0.501 to 1 |
| CC(C)(C)OC(=O)NC1CCN(Cc2ccc(-c3cccc4nc(NC(=O)C5CC5)nn34)cc2)CC1 [Compound 310] | – | < 0.1 | > 1 | > 1 |
| O=C(Nc1nc2cccc(-c3ccc(CN4CCCC(O)C4)cc3)n2n1)C1CC1 (stereo not drawn) [Compound 313, Cyclopropanecarboxylic acid {5-[4-(3-hydroxy-piperidin-1-ylmethyl)-phenyl]-[1,2,4]triazolo[1,5-a]pyridin-2-yl}-amide] | – | < 0.1 | 0.101 to 0.5 | > 1 |
| O=C(Nc1nc2cccc(-c3ccc(C(=O)N4CC(N5CCOCC5)C4)cc3)n2n1)C1CC1 [Compound 326, Cyclopropanecarboxylic acid {5-[4-(3-morpholin-4-yl-azetidine-1-carbonyl)-phenyl]-[1,2,4]triazolo[1,5-a]pyridin-2-yl}-amide] | – | 0.101 to 0.5 | > 1 | > 1 |
| CN(C)C1CN(C(=O)c2ccc(-c3cccc4nc(NC(=O)C5CC5)nn34)cc2)C1 [Compound 327, Cyclopropanecarboxylic acid {5-[4-(3-dimethylamino-azetidine-1-carbonyl)-phenyl]-[1,2,4]triazolo[1,5-a]pyridin-2-yl}-amide] | – | 0.101 to 0.5 | > 1 | > 1 |
| CN(C)CC1CN(C(=O)c2ccc(-c3cccc4nc(NC(=O)C5CC5)nn34)cc2)C1 [Compound 329, Cyclopropanecarboxylic acid {5-[4-(3-dimethylaminomethyl-azetidine-1-carbonyl)-phenyl]-[1,2,4]triazolo[1,5-a]pyridin-2-yl}-amide] | – | 0.101 to 0.5 | > 1 | > 1 |
